Test results published in US10947254B2, “Methods for treating ulcerative colitis using 3-((1R,3s,5S)-3-((7-((5-methyl-1H-pyrazol-3-yl)amino)-1,6-naphthyridin-5-yl)amino)-8-azabicyclo[3.2.1]octan-8-yl)propanenitrile” (priority 2015, dated 2021).

Legend:
[1] = system: IL-13 induced STAT6 phosphorylation in BEAS-2B human lung epithelial cells; conditions: BEAS-2B cells
[2] = system: IL-4 induced STAT6 phosphorylation in THP-1 human monocytic cells; conditions: THP-1 cells

| Compound | BEAS2B pIC50 [1] | THP-1 IL4 pIC50 [2] |
| --- | --- | --- |
| CCC(CC#N)N1[C@@H]2CC[C@H]1C[C@H](Nc1nc(Nc3cc(C)[nH]n3)cc3ncccc13)C2 (stereo partly drawn) [Example 1-22] | A (A represents a pEC50 value ≥7.5 (EC50≤32 nM)) | – |
| Cc1cc(Nc2cc3ncccc3c(N[C@@H]3C[C@H]4CC[C@@H](C3)N4CC(C)C#N)n2)n[nH]1 (stereo partly drawn) [Example 1-23] | A (A represents a pEC50 value ≥7.5 (EC50≤32 nM)) | A (A represents a pEC50 value ≥7.5 (EC50≤32 nM)) |
| Cc1cc(Nc2cc3ncccc3c(N[C@@H]3C[C@H]4CCC[C@@H](C3)N4CCC#N)n2)n[nH]1 [Example 1-31] | A (A represents a pEC50 value ≥7.5 (EC50≤32 nM)) | A (A represents a pEC50 value ≥7.5 (EC50≤32 nM)) |
| Cc1cc(Nc2cc3ncccc3c(N[C@@H]3C[C@H]4CCC[C@@H](C3)N4CCF)n2)n[nH]1 [Example 1-39] | A (A represents a pEC50 value ≥7.5 (EC50≤32 nM)) | A (A represents a pEC50 value ≥7.5 (EC50≤32 nM)) |
| Cc1cc(Nc2cc3ncccc3c(N[C@@H]3C[C@H]4CCC[C@@H](C3)N4CCCF)n2)n[nH]1 [Example 1-40] | A (A represents a pEC50 value ≥7.5 (EC50≤32 nM)) | A (A represents a pEC50 value ≥7.5 (EC50≤32 nM)) |
| Cc1cc(Nc2cc3ncccc3c(N[C@@H]3C[C@H]4CCC[C@@H](C3)N4CC(C)C)n2)n[nH]1 [Example 1-43] | A (A represents a pEC50 value ≥7.5 (EC50≤32 nM)) | A (A represents a pEC50 value ≥7.5 (EC50≤32 nM)) |
| Cc1cc(Nc2cc3ncccc3c(N[C@@H]3C[C@H]4CCC[C@@H](C3)N4CCC(F)(F)F)n2)n[nH]1 [Example 1-44] | A (A represents a pEC50 value ≥7.5 (EC50≤32 nM)) | A (A represents a pEC50 value ≥7.5 (EC50≤32 nM)) |
| Cc1cc(Nc2cc3ncccc3c(N[C@@H]3C[C@H]4CCC[C@@H](C3)N4Cc3cccnc3)n2)n[nH]1 [Example 1-47] | A (A represents a pEC50 value ≥7.5 (EC50≤32 nM)) | A (A represents a pEC50 value ≥7.5 (EC50≤32 nM)) |
| Cc1cc(Nc2cc3ncccc3c(N[C@@H]3C[C@H]4CCC[C@@H](C3)N4Cc3ccncc3C#N)n2)n[nH]1 [Example 1-56] | A (A represents a pEC50 value ≥7.5 (EC50≤32 nM)) | A (A represents a pEC50 value ≥7.5 (EC50≤32 nM)) |
| Cc1cc(Nc2cc3ncccc3c(N[C@@H]3C[C@H]4CC[C@@H](C3)N4C(=O)C(C)F)n2)n[nH]1 (stereo partly drawn) [Example 2-3] | A (A represents a pEC50 value ≥7.5 (EC50≤32 nM)) | – |
| Cc1cc(Nc2cc3ncccc3c(N[C@@H]3C[C@H]4CCC[C@@H](C3)N4C(=O)c3ccccc3)n2)n[nH]1 [Example 2-25] | A (A represents a pEC50 value ≥7.5 (EC50≤32 nM)) | A (A represents a pEC50 value ≥7.5 (EC50≤32 nM)) |
| Cc1cc(Nc2cc3ncccc3c(N[C@@H]3C[C@H]4CCC[C@@H](C3)N4C(=O)c3cncc(C#N)c3)n2)n[nH]1 [Example 2-26] | C (C represents a pEC50 value <6.7 (EC50>200 nM)) | – |
| Cc1cc(Nc2cc3ncccc3c(N[C@@H]3C[C@H]4CCC[C@@H](C3)N4C(=O)c3ccc(C#N)nc3)n2)n[nH]1 [Example 2-28] | C (C represents a pEC50 value <6.7 (EC50>200 nM)) | – |
| Cc1cc(Nc2cc3ncccc3c(N[C@@H]3C[C@H]4CCC[C@@H](C3)N4C(=O)c3ccnc(C#N)c3)n2)n[nH]1 [Example 2-30] | C (C represents a pEC50 value <6.7 (EC50>200 nM)) | – |
| CCC1(S(=O)(=O)N2[C@@H]3CCC[C@H]2C[C@H](Nc2nc(Nc4cc(C)[nH]n4)cc4ncccc24)C3)CC1 [Example 4-20] | A (A represents a pEC50 value ≥7.5 (EC50≤32 nM)) | A (A represents a pEC50 value ≥7.5 (EC50≤32 nM)) |
| Cc1cc(Nc2cc3ncccc3c(N[C@@H]3C[C@H]4CCC[C@@H](C3)N4S(=O)(=O)N3CCCC3)n2)n[nH]1 [Example 4-27] | A (A represents a pEC50 value ≥7.5 (EC50≤32 nM)) | A (A represents a pEC50 value ≥7.5 (EC50≤32 nM)) |
| Cc1cc(Nc2cc3ncccc3c(N[C@@H]3C[C@H]4CCC[C@@H](C3)N4S(=O)(=O)N3CCC3)n2)n[nH]1 [Example 4-29] | A (A represents a pEC50 value ≥7.5 (EC50≤32 nM)) | A (A represents a pEC50 value ≥7.5 (EC50≤32 nM)) |
| COc1ccc2c(N[C@@H]3C[C@H]4CC[C@@H](C3)N4CCCC#N)nc(Nc3cc(C)[nH]n3)cc2n1 [Example 5-2] | A (A represents a pEC50 value ≥7.5 (EC50≤32 nM)) | – |
| COc1ccc2c(N[C@@H]3C[C@H]4CC[C@@H](C3)N4CC(C)C)nc(Nc3cc(C)[nH]n3)cc2n1 [Example 5-4] | A (A represents a pEC50 value ≥7.5 (EC50≤32 nM)) | A (A represents a pEC50 value ≥7.5 (EC50≤32 nM)) |
| C=CCOC(=O)N1[C@@H]2CC[C@H]1C[C@H](Nc1nc(Nc3cc(C)[nH]n3)cc3nc(OC)ccc13)C2 [Example 5-7] | A (A represents a pEC50 value ≥7.5 (EC50≤32 nM)) | – |
| COc1ccc2c(N[C@@H]3C[C@H]4CC[C@@H](C3)N4CCC#N)nc(Nc3cc(C)[nH]n3)cc2n1 [Example 5-8] | A (A represents a pEC50 value ≥7.5 (EC50≤32 nM)) | A (A represents a pEC50 value ≥7.5 (EC50≤32 nM)) |
| COc1ccc2c(N[C@@H]3C[C@H]4CCC[C@@H](C3)N4CCC#N)nc(Nc3cc(C)[nH]n3)cc2n1 [Example 5-10] | A (A represents a pEC50 value ≥7.5 (EC50≤32 nM)) | A (A represents a pEC50 value ≥7.5 (EC50≤32 nM)) |

| Compound | BEAS2B pIC50 [1] | THP-1 IL4 pIC50 [2] |
| --- | --- | --- |
| C=CCOC(=O)N1[C@@H]2CC[C@H]1C[C@H](Nc1nc(Nc3cc(C)[nH]n3)cc3nc(CN4CCOCC4)ccc13)C2 [Example 5-17] | A (A represents a pEC50 value ≥7.5 (EC50≤32 nM)) | – |
| Cc1cc(Nc2cc3nc(CN4CCOCC4)ccc3c(N[C@@H]3C[C@H]4CCC[C@@H](C3)N4S(C)(=O)=O)n2)n[nH]1 [Example 5-22] | A (A represents a pEC50 value ≥7.5 (EC50≤32 nM)) | – |
| Cc1cc(Nc2cc3nc(CN4CCOCC4)ccc3c(N[C@@H]3C[C@H]4CCC[C@@H](C3)N4S(=O)(=O)c3cccnc3)n2)n[nH]1 [Example 5-27] | A (A represents a pEC50 value ≥7.5 (EC50≤32 nM)) | A (A represents a pEC50 value ≥7.5 (EC50≤32 nM)) |
| Cc1cc(Nc2cc3nc(CN4CCOCC4)ccc3c(N[C@@H]3C[C@H]4CCC[C@@H](C3)N4S(=O)(=O)c3cncc(F)c3)n2)n[nH]1 [Example 5-30] | A (A represents a pEC50 value ≥7.5 (EC50≤32 nM)) | A (A represents a pEC50 value ≥7.5 (EC50≤32 nM)) |
| Cc1cnc2cc(Nc3cc(C)[nH]n3)nc(N[C@@H]3C[C@H]4CC[C@@H](C3)N4CCC#N)c2c1 [Example 6-1] | A (A represents a pEC50 value ≥7.5 (EC50≤32 nM)) | A (A represents a pEC50 value ≥7.5 (EC50≤32 nM)) |
| Cc1cnc2cc(Nc3cc(C)[nH]n3)nc(N[C@@H]3C[C@H]4CCC[C@@H](C3)N4CCC#N)c2c1 [Example 6-6] | A (A represents a pEC50 value ≥7.5 (EC50≤32 nM)) | A (A represents a pEC50 value ≥7.5 (EC50≤32 nM)) |
| COc1cnc2cc(Nc3cc(C)[nH]n3)nc(N[C@@H]3C[C@H]4CC[C@@H](C3)N4C(=O)OCC(C)C)c2c1 [Example 6-25] | A (A represents a pEC50 value ≥7.5 (EC50≤32 nM)) | – |
| Cc1cc(Nc2cc3ncc(S(C)(=O)=O)cc3c(N[C@@H]3C[C@H]4CC[C@@H](C3)N4CCCF)n2)n[nH]1 [Example 6-55] | – | C (C represents a pEC50 value <6.7 (EC50>200 nM)) |
| Cc1cc(Nc2cc3ncc(S(C)(=O)=O)cc3c(N[C@@H]3C[C@H]4CC[C@@H](C3)N4[C@@H]3CCOC3=O)n2)n[nH]1 [Example 6-57] | – | C (C represents a pEC50 value <6.7 (EC50>200 nM)) |
| Cc1cc(Nc2cc3ncc(S(C)(=O)=O)cc3c(N[C@@H]3C[C@H]4CC[C@@H](C3)N4[C@@H]3CCOC3=O)n2)n[nH]1 [Example 6-58] | – | C (C represents a pEC50 value <6.7 (EC50>200 nM)) |
| Cc1cc(Nc2cc3ncc(S(C)(=O)=O)cc3c(N[C@@H]3C[C@H]4CC[C@@H](C3)N4Cc3ccncc3)n2)n[nH]1 [Example 6-59] | C (C represents a pEC50 value <6.7 (EC50>200 nM)) | – |
| COc1ccnc2cc(Nc3cc(C)[nH]n3)nc(N[C@@H]3C[C@H]4CC[C@@H](C3)N4C(=O)CN(C)C)c12 [Example 7-3] | – | C (C represents a pEC50 value <6.7 (EC50>200 nM)) |
| COc1ccnc2cc(Nc3cc(C)[nH]n3)nc(N[C@@H]3C[C@H]4CC[C@@H](C3)N4CCC#N)c12 [Example 7-6] | – | A (A represents a pEC50 value ≥7.5 (EC50≤32 nM)) |
| CCS(=O)(=O)N1[C@@H]2CC[C@H]1C[C@H](Nc1nc(Nc3cc(C)[nH]n3)c(F)c3ncccc13)C2 [Example 8-3] | – | A (A represents a pEC50 value ≥7.5 (EC50≤32 nM)) |
| Cc1cc(Nc2nc(N[C@@H]3C[C@H]4CC[C@@H](C3)N4S(=O)(=O)c3cncc(F)c3)c3cccnc3c2F)n[nH]1 [Example 8-5] | A (A represents a pEC50 value ≥7.5 (EC50≤32 nM)) | – |
| Cc1cc(Nc2nc(N[C@@H]3C[C@H]4CC[C@@H](C3)N4C(=O)CN(C)C)c3cccnc3c2F)n[nH]1 [Example 8-7] | – | C (C represents a pEC50 value <6.7 (EC50>200 nM)) |
| Cc1cc(Nc2nc(NC3CC4CCC(C3)N4C(=O)C(C)O)c3cccnc3c2F)n[nH]1 (stereo not drawn) [Example 8-8] | – | C (C represents a pEC50 value <6.7 (EC50>200 nM)) |
| Cc1cc(Nc2nc(N[C@@H]3C[C@H]4CCC[C@@H](C3)N4S(=O)(=O)c3ccccc3)c3cccnc3c2F)n[nH]1 [Example 8-11] | A (A represents a pEC50 value ≥7.5 (EC50≤32 nM)) | – |
| Cc1cc(Nc2nc(N[C@@H]3C[C@H]4CCC[C@@H](C3)N4S(=O)(=O)c3cncc(F)c3)c3cccnc3c2F)n[nH]1 [Example 8-13] | A (A represents a pEC50 value ≥7.5 (EC50≤32 nM)) | – |
| Cc1cc(Nc2nc(N[C@@H]3C[C@H]4CCC[C@@H](C3)N4C(=O)CN(C)C)c3cccnc3c2F)n[nH]1 [Example 8-15] | – | C (C represents a pEC50 value <6.7 (EC50>200 nM)) |
| Cc1cnc2c(F)c(Nc3cc(C)[nH]n3)nc(N[C@@H]3C[C@H]4CC[C@@H](C3)N4S(=O)(=O)N3CC(C#N)C3)c2c1 [Example 8-19] | – | C (C represents a pEC50 value <6.7 (EC50>200 nM)) |
| Cc1cnc2c(F)c(Nc3cc(C)[nH]n3)nc(N[C@@H]3C[C@H]4CC[C@@H](C3)N4S(=O)(=O)c3cccnc3)c2c1 [Example 8-20] | – | C (C represents a pEC50 value <6.7 (EC50>200 nM)) |
